Like-named read-outs stand apart in the source and are kept apart here.
Assays:
HeLa cells = assay: MTT cytotoxicity assay, HeLa; assay type: cell-based; conditions: Homo sapiens, 24 h, read-out: IC50, Cervix, HeLa
Method: (§1) In the first step of the study, we analyzed the cytotoxicity of novel soloxolone derivatives 1–12 in a panel of tumor cells, including human cervical carcinoma HeLa, human duodenal carcinoma HuTu-80 and murine melanoma B16 cells, as well as human non-transformed hFF3 foreskin fibroblasts. The cells were treated with derivatives for 24 h and cell viability was evaluated by 3-(4,5-dimethylthiazol-2-yl)-2,5-diphenyltetrazolium bromide (MTT) assay. SM was used as the reference compound.
(§2) The cells in the exponential growth phase were seeded in quadruplicate in 96-well plates at a density of 1 × 10^4 cells/well for HeLa, U87, U118, KELLY and Neuro2a cells; 1.5 × 10^4 cells/well for HuTu-80 cells; 2 × 10^4 cells/well for B16 cells; and 7 × 10^3 cells/well for hFF3 fibroblasts. Cells were incubated under standard conditions overnight followed by their treatment with the investigated compounds (1–20 µM) for 24 h. Then, 10 µL of MTT solution was added to the cells to a final concentration of 0.5 mg/mL and plates were placed under standard conditions for 3 h followed by an aspiration of MTT-containing medium and a dissolution of formazan crystals with 100 µL of DMSO. The absorbance of each well was read at test and reference wavelengths of 570 and 620 nm, respectively, on a Multiscan RC plate reader (Thermo LabSystems, Helsinki, Finland).

HuTu-80 cells = assay: MTT cytotoxicity assay, HuTu-80; assay type: cell-based; conditions: Homo sapiens, HuTu80, 24 h, read-out: IC50, Duodenum, HuTu-80
Method: as §1, §2

B16 cells = assay: MTT cytotoxicity assay, B16; assay type: cell-based, murine; conditions: Mus musculus, 24 h, read-out: IC50, Melanoma, B16
Method: as §1, §2

[1] = tested on: hFF3 foreskin fibroblasts; assay: MTT cytotoxicity assay, hFF3 fibroblasts; assay type: cell-based, human
Method: as §1, §2

panel of tumor cells = assay: MTT cytotoxicity, values averaged over the cell panel; assay type: cell-based
Method: as §1, §2

U87 cells = assay: MTT cytotoxicity assay, U87; assay type: cell-based; conditions: Homo sapiens, U-87 MG, 24 h, read-out: IC50, Glioblastoma, U87
Method: (§3) To evaluate the antitumor activity of the synthesized soloxolone amides in brain tumor cells, the cytotoxicity of compounds 4–12, predicted as BBB-permeable (Figure 3), was further analyzed in human glioblastoma U87 and U118 cells, as well as human neuroblastoma KELLY and murine neuroblastoma Neuro2a cells.
as §2

U118 cells = assay: MTT cytotoxicity assay, U118; assay type: cell-based; conditions: Homo sapiens, 24 h, read-out: IC50, Glioblastoma, U118
Method: as §3, §2

KELLY cells = assay: MTT cytotoxicity assay, KELLY; assay type: cell-based; conditions: Homo sapiens, 24 h, read-out: IC50, Neuroblastoma, KELLY
Method: as §3, §2

Neuro2a cells = assay: MTT cytotoxicity assay, Neuro2a; assay type: cell-based, murine; conditions: Mus musculus, N2a, 24 h, read-out: IC50, Neuroblastoma, Neuro2a
Method: as §3, §2

brain tumor cells = assay: MTT cytotoxicity, values summarised over brain tumor cells; assay type: cell-based; conditions: U87, U118, KELLY, Neuro2a; MTT 24 h; read-out: IC50 (median), brain tumor cells
Method: as §3, §2

[2] = average over Table 1 cell lines (worded 'in a panel of tumor cells'), MTT 24 h, read-out: average IC50
[3] = aryl-containing amides versus SM, tumor cells of Table 1, MTT 24 h, read-out: average IC50 against tumor cells

| SMILES | IC50 (HeLa cells) [nM] | IC50 (HuTu-80 cells) [nM] | IC50 (B16 cells) [nM] | IC50 ([1]; Homo sapiens, HFF-3, 24 h) [µM] | IC50 (panel of tumor cells; [2]) [nM] | IC50 (U87 cells) [nM] | IC50 (U118 cells) [nM] | IC50 (KELLY cells) [nM] | IC50 (Neuro2a cells) [nM] | IC50 (panel of tumor cells; [3]) [nM] | melting point | IC50 ([1]; 24 h) [µM] | IC50 (panel of tumor cells; conclusions, soloxolone amides versus SM, read-out: average IC50 in a panel of tumor cell lines) [nM] | IC50 (brain tumor cells) [nM] |
| --- | --- | --- | --- | --- | --- | --- | --- | --- | --- | --- | --- | --- | --- | --- |
| CC1(C)C(=O)C(C#N)=C[C@]2(C)C3=CC(=O)[C@@H]4[C@@H]5C[C@@](C)(C(=O)O)CC[C@]5(C)CC[C@@]4(C)[C@]3(C)CCC12 (stereo partly shown) [compound 1, 2-Cyano-3,12-dioxo-18βH-olean-9(11),1(2)-dien-30-oic acid] | 9900 ± 700 | 2500 ± 300 | 4200 ± 300 | 16 ± 1.9 | 8200 |  |  |  |  |  |  |  |  |  |
| CC1(C)C(=O)C(C#N)=C[C@]2(C)C3=CC(=O)[C@@H]4[C@@H]5C[C@@](C)(C(=O)Nc6cccnc6)CC[C@]5(C)CC[C@@]4(C)[C@]3(C)CCC12 (stereo partly shown) [compound 10, N-(Pyridin-3-yl)-2-Cyano-3,12-dioxo-18βH-olean-9(11),1(2)-dien-30-amide] | 1800 ± 100 | 1500 ± 200 | 1700 ± 100 | 1.6 ± 0.1 |  | 2500 ± 200 | 2100 ± 200 | 1500 ± 100 | 1400 ± 100 | 1500 to 1800 | 250 °C |  |  |  |
| CN(C)CCNC(=O)[C@@]1(C)CC[C@]2(C)CC[C@]3(C)[C@H](C(=O)C=C4[C@@]5(C)C=C(C#N)C(=O)C(C)(C)C5CC[C@]43C)[C@@H]2C1 (stereo partly shown) [compound 6, N-(2′-(Dimethylamino)ethyl)-2-Cyano-3,12-dioxo-18βH-olean-9(11),1(2)-dien-30-amide] | 2600 ± 500 | 2100 ± 500 | 3300 ± 500 | 4.1 ± 0.3 | 3000 | 4600 ± 400 | 3800 ± 500 | 1600 ± 100 | 2800 ± 400 |  |  |  |  |  |
| CC1(C)C(=O)C(C#N)=C[C@]2(C)C3=CC(=O)[C@@H]4[C@@H]5C[C@@](C)(C(=O)NCCCO)CC[C@]5(C)CC[C@@]4(C)[C@]3(C)CCC12 (stereo partly shown) [compound 3, N-(3′-Hydroxypropyl)-2-cyano-3,12-dioxo-18βH-olean-9(11),1(2)-dien-30-amide] | 3500 ± 200 | 1700 ± 200 | 1400 ± 100 | 6.8 ± 1.3 | 3400 |  |  |  |  |  | 150.8 °C (dec.) |  |  |  |
| CC1(C)C(=O)C(C#N)=C[C@]2(C)C3=CC(=O)[C@@H]4[C@@H]5C[C@@](C)(C(=O)NCCCCCO)CC[C@]5(C)CC[C@@]4(C)[C@]3(C)CCC12 (stereo partly shown) [compound 4, N-(5′-Hydroxypentyl)-2-cyano-3,12-dioxo-18βH-olean-9(11),1(2)-dien-30-amide] | 2300 ± 400 | 1300 ± 100 | 1500 ± 100 | 3.6 ± 0.3 | 2200 | 2000 ± 100 | 3100 ± 500 | 1500 ± 100 | 1900 ± 200 |  | 115.7 °C (dec.) |  |  |  |
| CC(C)(C)c1cc(CCCNC(=O)[C@@]2(C)CC[C@]3(C)CC[C@]4(C)[C@H](C(=O)C=C5[C@@]6(C)C=C(C#N)C(=O)C(C)(C)C6CC[C@]54C)[C@@H]3C2)cc(C(C)(C)C)c1O (stereo partly shown) [compound 11, N-(3′-(3′’,5′’-di-tert-butyl-4′’-hydroxyphenyl)propyl)-2-Cyano-3,12-dioxo-18βH-olean-9(11),1(2)-dien-30-amide] | 2500 ± 100 | 1500 ± 100 | 1400 ± 100 | 1.3 ± 0.2 |  | 1500 ± 100 | 1900 ± 100 | 1800 ± 200 | 1400 ± 100 | 1500 to 1800 | 139 °C (dec.) |  |  |  |
| CN(C)CCCNC(=O)[C@@]1(C)CC[C@]2(C)CC[C@]3(C)[C@H](C(=O)C=C4[C@@]5(C)C=C(C#N)C(=O)C(C)(C)C5CC[C@]43C)[C@@H]2C1 (stereo partly shown) [compound 7, N-(3′-(Dimethylamino)propyl)-2-cyano-3,12-dioxo-18βH-olean-9(11),1(2)-dien-30-amide] | 4900 ± 800 | 2000 ± 700 | 3300 ± 800 | 7.7 ± 1.1 | 4500 | 5300 ± 700 | 5200 ± 1300 | 1800 ± 300 | 3700 ± 600 |  |  |  |  |  |
| COCCNC(=O)[C@@]1(C)CC[C@]2(C)CC[C@]3(C)[C@H](C(=O)C=C4[C@@]5(C)C=C(C#N)C(=O)C(C)(C)C5CC[C@]43C)[C@@H]2C1 (stereo partly shown) [compound 5, N-(2′-Methoxyethyl)-2-cyano-3,12-dioxo-18βH-olean-9(11),1(2)-dien-30-amide] | 1500 ± 200 | 2300 ± 200 | 1600 ± 100 | 12.8 |  | 5500 ± 1100 | 7000 ± 700 | 1600 ± 100 | 2700 ± 300 |  | 115.9 °C (dec.) | 12.9 ± 0.8 |  |  |
| COC(=O)[C@@]1(C)CC[C@]2(C)CC[C@]3(C)[C@H](C(=O)C=C4[C@@]5(C)C=C(C#N)C(=O)C(C)(C)C5CC[C@]43C)[C@@H]2C1 (stereo partly shown) [SM, soloxolone methyl, reference compound] | 1300 ± 100 | 1500 ± 100 | 1600 ± 100 | 4 ± 0.4 | 2100 | 1800 ± 100 | 1900 ± 100 | 1600 ± 100 | 1400 ± 100 | 1500 |  |  | 1600 | 1400 |
| CC1(C)C(=O)C(C#N)=C[C@]2(C)C3=CC(=O)[C@@H]4[C@@H]5C[C@@](C)(C(=O)NCCO)CC[C@]5(C)CC[C@@]4(C)[C@]3(C)CCC12 (stereo partly shown) [compound 2, N-(2′-Hydroxyethyl)-2-cyano-3,12-dioxo-18βH-olean-9(11),1(2)-dien-30-amide] | 1500 ± 100 | 1400 ± 100 | 3300 ± 200 | 1.2 ± 0.1 | 1900 |  |  |  |  |  | 152.7 °C (dec.) |  |  |  |
| Cc1ccc(NC(=O)[C@@]2(C)CC[C@]3(C)CC[C@]4(C)[C@H](C(=O)C=C5[C@@]6(C)C=C(C#N)C(=O)C(C)(C)C6CC[C@]54C)[C@@H]3C2)cc1 (stereo partly shown) [compound 9, N-p-Tolyl-2-cyano-3,12-dioxo-18βH-olean-9(11),1(2)-dien-30-amide] | 1600 ± 100 | 1500 ± 100 | 2100 ± 300 | 3.6 ± 0.3 |  | 2000 ± 200 | 1900 ± 200 | 1400 ± 100 | 1600 ± 100 | 1500 to 1800 |  |  |  |  |
| CC1(C)C(=O)C(C#N)=C[C@]2(C)C3=CC(=O)[C@@H]4[C@@H]5C[C@@](C)(C(=O)Nc6ccc(Br)cc6)CC[C@]5(C)CC[C@@]4(C)[C@]3(C)CCC12 (stereo partly shown) [compound 8, N-(4′-Bromophenyl)-2-Cyano-3,12-dioxo-18βH-olean-9(11),1(2)-dien-30-amide] | 1500 ± 100 | 1400 ± 100 | 1900 ± 100 | 1.8 ± 0.1 |  | 1700 ± 100 | 2000 ± 100 | 1400 ± 100 | 1600 ± 100 | 1500 to 1800 | 283 °C (dec.) |  |  |  |

From PMC9145754, “Novel Soloxolone Amides as Potent Anti-Glioblastoma Candidates: Design, Synthesis, In Silico Analysis and Biological Activities In Vitro and In Vivo” (Pharmaceuticals, 2022)
